In US20030219785A1, “Targeted drug delivery methods” (Vanderbilt University, priority 2002, published 2003):
“Also recorded” adds a separate entry of the source.

Legend:
GL-261 tumors = experiment: Tumor volume assessment, GL-261; type: in vivo, mouse; conditions: group 3: cisplatin 0.08 mg tail vein days 1-4, no irradiation
Description: H460 cell line forms tumor in nude mice. […] Forty mice bearing GI-261 tumors on their right hind limbs were divided eight groups (five mice per group). An equal number of large and intermediate size (11-15 mm) tumors were present in each group. The first group received no treatment as the control group. The second group received radiation therapy (3 Gy×2 fractions) on days 1 and 3. Irradiated mice were immobilized in […] chambers and the entire body was shielded with lead, except for tumor bearing hind limb. The third group received 0.08 mg/100 μl of cisplatin (Sigma) in PBS by tail vein injection on days 1, 2, 3 and 4. The forth group received 0.5 mg of nanomag beads-10 μg of WGA-0.08 mg cisplatin cocktail in 100 μl PBS by tail vein injection on days 1, 2, 3 and 4. The fifth group received irradiation of 3 Gy on days 1 and 3 and the same treatments as group 3 after irradiation on days 1, 2, 3 and 4. […] Tumors volumes were measured 3 times weekly using skim calipers as described previously (see […]., et al., Nat. Med. 1:786-791 (1995); Hanson, et al., Radiation Research 142:281-287 (1995)) starting on day 1 and ending on the eighth measurement, or when the tumor volume reached 5 times that of the beginning volumes. Data was calculated as the percentage of original (day 1) tumor volume and graphed as fractional tumor volume+/-standard deviation (SD) for each treatment group. […]

H460 tumors = experiment: Tumor volume assessment, H460; type: in vivo, mouse; conditions: irradiation 3 Gy x2 + cisplatin 0.08 mg days 1-4
Procedure: H460 cell line forms tumor in nude mice. […] Twenty mice bearing H460 tumors with a range of 10-13 mm of diameter on their right hind limbs were divided into four groups (five mice per group). The first group received no treatment as the control group. The second group received radiation therapy (3 Gy×2 fraction) on days 1 and 3. The third group received radiation as […] and 0.08 mg/100 μl of cisplatin in PBS by tail vein injection after irradiation on days 1, 2, 3 and 4. The forth group received radiation as […] and 0.5 mg of nanomag beads-10 μg of WGA-0.08 mg of cisplatin cocktail in 100 μl PBS by tail vein injection after irradiation on days 1, 2, 3 and 4 with 15 minutes of magnetic force field after each time injection. Tumors volumes were measured 3 times weekly using skim calipers as described previously (see […]., et al., Nat. Med. 1:786-791 (1995); Hanson, et al., Radiation Research 142:281-287 (1995)) starting on day 1 and ending on the eighth measurement, or when the tumor volume reached 5 times that of the beginning volumes. Data was calculated as the percentage of original (day 1) tumor volume and graphed as fractional tumor volume+/-standard deviation (SD) for each treatment group. […]

[1] = system: inflamed irradiated vasculature of LLC tumor; experiment: WGA-FITC binding in LLC tumor vascular window model; type: in vivo, mouse; conditions: LLC window irradiated 2.5 Gy vs 0 Gy; 100 μl WGA-FITC tail vein; pictures 60 min after injection
[2] = system: endothelial cells of tumors; experiment: Electron microscopy of WGA binding; type: in vivo

Row | Compound | tumor growth delay (GL-261 tumors) | delay of tumor growth (H460 tumors) | WGA-FITC binding to tumor vasculature [1] | location of WGA binding [2]
1 | N.N.[Cl][Pt][Cl] [cisplatin] | 3 to 4 days | 11 days | – | –
2 | wheat germ agglutinin [WGA] | – | – | efficiently and specifically bind; also recorded: much greater binding ability | most WGA binding was located at endothelial intercellular gaps
